# Test results reported in US12448369B2 (Edgewise Therapeutics, Inc., priority 2023, dated 2025).
# Test system: Rabbit Psoas myofibrils (skeletal myosin ATPase)
# Assay: Myofibril ATPase assay, rabbit psoas (skeletal) myofibrils
# Assay type: biochemical
# Details: Y75 value (no ‡ mark); rabbit psoas myofibrils
# Experimental: (§1) Example 1. Myofibril ATPase Assay
# (§2) Myofibril ATPase assays are known in the art to be useful in evaluating small molecules for the treatment of HCM and other cardiac indications. Myosin ATPase activity is assessed by using a coupled reaction system, in which ADP generated by the myosin ATPase function is coupled to the disappearance of NADH through the pyruvate kinase/lactate dehydrogenase (PK-LDH) system. ATPase activity produces ADP, which is used as a substrate for PK to produce pyruvate and regenerate ATP. The pyruvate is then used as a substrate by LDH to oxidize NADH to NAD+. The rate of the reaction is monitored through the time-dependent disappearance of NADH using absorbance at 340 nm, which, when the couple system is in stoichiometric excess, is directly correlated to the ATPase activity of the myosin. Inhibition of ATPase activity by the assayed compounds is indicated by a reduced rate of NADH loss, relative to vehicle-treated controls, over the experimental time window. Activation of ATPase activity by the assayed compounds is indicated by an increased rate of NADH loss, relative to vehicle-treated controls, over the experimental time window. Rabbit Psoas, Porcine atria, and Porcine ventricle are the primary sources of myofibril material.
# (§3) Materials: The following stock solutions and reagents were used in the Myofibril ATPase Assay:
# (§4) Stock Solutions of pCa buffer. Combine PIPES, CaCl2, and EGTA solutions with water. Adjust pH to 7.0 and bring final volume to 100 mL.
# (§5) Buffer A & Buffer B. Prepare buffers A and B according to the table below.
# (§6) Myofibril ATPase Assay Procedure: BSA, ATP, NADH, PEP, and DTT solutions were thawed at room temperature, then transferred to ice. Pellet-frozen myofibrils were transferred with approximately twice the required volume into a sufficiently large tube and capped. Myofibrils were thawed by rolling in a water bath for approximately 15 min at room temperature and cooled on ice. Buffers A and B were prepared by adjusting volumes as necessary for required number of wells and stored on ice. 0.5 μL of the compounds to be assayed were added into wells. 25 μL of Buffer A was dispensed into the wells, followed by 25 μL of Buffer B. The wells were measured for absorbance at 340 nm, using a kinetic protocol in which the wells are read every 1.5-2 min for 75 min. Assay data analysis was performed using a python script that filtered the raw data to retain those points falling between a starting and ending time and between a maximum and minimum absorbance, then used the filtered time-domain 340 nm absorbance data in each well to calculate a slope via linear regression analysis in units of mAU/min. Compound slopes were normalized between 100% and 0% activity, where 100% represented the slope of wells containing only compound vehicle, and fit to a 4-parameter logistic model. In addition to the fit parameters, the EC25% values were calculated, relative to the 100% normalized value. Additionally, the Y125 values were calculated for compounds that increased myosin ATP-ase activity. Fit parameters, calculated effective concentrations, filtered raw data, and calculated slopes were exported, in addition to compound-specific graphs of normalized ATPase activity versus concentration in μM. Each value reported in Table 5, Table 6, and Table 7 is either a Y75 value or a Y125 value. Values without a double cross sign, ‡, are Y75 values, which reflect the concentration required to reduce myosin ATP-ase activity by 25% (e.g., Y-axis activity value is 75% of initial value), relative to myosin ATP-ase activity in the absence of exogenous compound.
# Skeletal Myofibril Isolation:
# (§7) Myofibrils from various animals and tissue types were acquired from a variety of sources: rabbit psoas muscle was purchased from Pel-Freez Biologicals (Rogers, AR) and porcine cardiac muscle was purchased from Exemplar Genetics. All myofibrils were prepared using a method based upon those described in Herrmann et al. (1993) and summarized here. […]
row,Structure (SMILES),Skeletal EC25 [nM]
1,"Cc1c(CC(=O)N[C@H]2COc3cc(C#N)cc(F)c32)c(=O)[nH]c2ccc(F)c(C#N)c12 (single isomer, unassigned) [compound 60]",270

# Same assay, conditions: Y75 value: concentration required to reduce myosin ATP-ase activity by 25%; Rabbit Psoas Prep pCa 25 GEOM_MEAN
row,Structure (SMILES),Skeletal EC25 [nM]
1,"C[C@@H](NC(=O)Cc1cc2c(F)c(F)ccc2[nH]c1=O)c1nc(C#N)co1 (single isomer, unassigned) [compound 4006]",1110

# Same assay, conditions: rabbit psoas myofibrils; Y75 value
row,Structure (SMILES),Skeletal EC25 [nM]
1,"Cc1nccc2[nH]c(=O)c(CC(=O)N[C@H](C)c3ncccc3F)c(C)c12 (single isomer, unassigned) [compound 267]",100000
2,"Cc1nccc2[nH]c(=O)c([C@@H](C)C(=O)N[C@H](C)c3ccc(C#N)cc3F)c(C)c12 (single isomer, unassigned) [compound 183]",750
3,Cc1c(CC(=O)N[C@@H](C)c2ncc(C#N)cc2F)c(=O)[nH]c2ccc(C(F)(F)F)nc12 [compound 147],60
4,C[C@H](NC(=O)Cc1c(C(F)(F)F)c2c(C3CC3)nccc2[nH]c1=O)c1ccc(F)cc1F [compound 421],200
5,"Cc1c([C@@H](C)C(=O)N[C@@H](C)c2ccc(F)cc2F)c(=O)[nH]c2ccnc(F)c12 (single isomer, unassigned) [compound 376]",30
6,"Cc1nccc2[nH]c(=O)c(CC(=O)N[C@@H](CO)c3ccc(F)cc3F)c(C)c12 (single isomer, unassigned) [compound 396]",550
7,CNc1nccc2[nH]c(=O)c(CC(=O)N[C@@H](C)c3ccc(F)cc3F)c(C)c12 [compound 354],190
8,"Cc1nccc2[nH]c(=O)c(CC(=O)N[C@@H](C)c3ccc(O)cc3)c(C)c12 (single isomer, unassigned) [compound 329]",100000
9,Cc1c(CC(=O)N[C@@H](C)c2ccc(C#N)cc2F)c(=O)[nH]c2ccnc(OC3CC3)c12 [compound 202],110
10,"C[C@@H](NC(=O)Cc1c(C(F)(F)F)c2c(C3CC3)nccc2[nH]c1=O)c1ncc(C#N)cn1 (single isomer, unassigned) [compound 3001]",4130
11,"Cc1nccc2[nH]c(=O)c([C@H](C)C(=O)N[C@@H](C)c3ccc(F)cc3F)c(C)c12 (single isomer, unassigned) [compound 398]",230
12,Cc1c(CC(=O)N[C@@H](C)c2ccc(C#N)cn2)c(=O)[nH]c2ccnc(C#N)c12 [compound 158],60
13,"Cc1c([C@H](C)C(=O)N[C@@H](C)c2ccc(F)cc2F)c(=O)[nH]c2ccc(C(F)(F)F)nc12 (single isomer, unassigned) [compound 369]",15360

# Target: T1, Porcine ventricle myofibrils (ventricular myosin ATPase) (Sus scrofa, UniProt P79293)
# T1 construct: Myofibrils from porcine cardiac muscle was isolated from the left ventricle of Yucatan minipigs; tissue Exemplar Genetics; host or cells: left ventricle of Yucatan minipigs, myofibrils prepared in house
# Assay: Myofibril ATPase assay, porcine ventricle myofibrils
# Assay type: biochemical, porcine (Yucatan minipigs)
# Details: Y75 value (no ‡ mark); porcine ventricle myofibrils
# Experimental: as §1, §2, §3, §4, §5, §6
# Cardiac Myofibril Isolation:
# Myofibrils from porcine cardiac muscle was isolated from the left ventricle of Yucatan minipigs. Myofibrils were prepared using a method based upon those described in Herrmann et al. (1993) and summarized here. […]
# T1 sequence (P79293 whole entry): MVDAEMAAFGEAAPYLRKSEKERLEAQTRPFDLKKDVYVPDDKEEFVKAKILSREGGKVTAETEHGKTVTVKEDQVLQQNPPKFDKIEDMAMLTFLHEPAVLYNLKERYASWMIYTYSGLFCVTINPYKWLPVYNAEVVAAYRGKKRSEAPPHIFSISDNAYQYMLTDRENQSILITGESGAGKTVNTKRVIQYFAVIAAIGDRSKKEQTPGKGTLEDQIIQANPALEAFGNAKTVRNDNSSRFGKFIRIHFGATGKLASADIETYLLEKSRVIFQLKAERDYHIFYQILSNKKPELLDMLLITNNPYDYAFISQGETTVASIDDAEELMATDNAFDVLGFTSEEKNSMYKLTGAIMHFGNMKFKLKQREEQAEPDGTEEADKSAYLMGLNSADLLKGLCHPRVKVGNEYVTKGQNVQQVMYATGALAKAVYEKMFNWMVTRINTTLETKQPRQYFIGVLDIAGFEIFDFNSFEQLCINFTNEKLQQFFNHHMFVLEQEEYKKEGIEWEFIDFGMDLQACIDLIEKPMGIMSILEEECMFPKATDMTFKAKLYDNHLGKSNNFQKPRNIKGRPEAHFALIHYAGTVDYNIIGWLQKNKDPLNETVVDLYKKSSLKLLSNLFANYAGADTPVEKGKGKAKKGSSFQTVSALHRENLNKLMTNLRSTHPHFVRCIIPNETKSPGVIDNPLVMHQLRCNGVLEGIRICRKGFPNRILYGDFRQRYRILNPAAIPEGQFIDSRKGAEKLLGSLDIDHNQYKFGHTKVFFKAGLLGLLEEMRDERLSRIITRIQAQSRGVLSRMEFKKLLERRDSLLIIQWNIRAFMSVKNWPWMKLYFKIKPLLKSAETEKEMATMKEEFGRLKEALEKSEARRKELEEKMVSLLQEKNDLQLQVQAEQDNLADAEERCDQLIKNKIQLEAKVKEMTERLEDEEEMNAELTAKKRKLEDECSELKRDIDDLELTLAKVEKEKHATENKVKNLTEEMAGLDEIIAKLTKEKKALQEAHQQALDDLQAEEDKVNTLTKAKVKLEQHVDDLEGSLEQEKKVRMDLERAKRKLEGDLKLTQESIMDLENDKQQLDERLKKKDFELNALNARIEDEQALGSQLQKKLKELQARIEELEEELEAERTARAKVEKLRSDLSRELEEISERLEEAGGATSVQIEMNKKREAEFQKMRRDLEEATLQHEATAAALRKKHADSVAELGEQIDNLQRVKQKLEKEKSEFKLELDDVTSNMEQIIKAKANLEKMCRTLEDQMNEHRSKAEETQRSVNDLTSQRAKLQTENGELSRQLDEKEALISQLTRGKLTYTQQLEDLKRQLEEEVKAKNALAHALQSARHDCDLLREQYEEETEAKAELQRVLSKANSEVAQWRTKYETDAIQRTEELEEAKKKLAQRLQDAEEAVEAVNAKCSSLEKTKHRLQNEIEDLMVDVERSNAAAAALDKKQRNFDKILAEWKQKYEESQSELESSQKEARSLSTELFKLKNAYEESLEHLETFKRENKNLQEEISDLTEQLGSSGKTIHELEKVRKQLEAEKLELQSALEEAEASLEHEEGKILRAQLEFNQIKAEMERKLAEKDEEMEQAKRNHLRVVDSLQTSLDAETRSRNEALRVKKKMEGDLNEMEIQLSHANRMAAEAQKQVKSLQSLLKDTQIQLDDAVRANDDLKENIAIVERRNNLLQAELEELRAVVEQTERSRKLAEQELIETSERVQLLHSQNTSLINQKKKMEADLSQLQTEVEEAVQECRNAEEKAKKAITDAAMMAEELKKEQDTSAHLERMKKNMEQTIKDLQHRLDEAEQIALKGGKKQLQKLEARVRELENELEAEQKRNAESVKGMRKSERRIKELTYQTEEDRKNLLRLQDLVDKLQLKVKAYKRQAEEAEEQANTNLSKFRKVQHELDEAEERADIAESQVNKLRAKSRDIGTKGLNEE
row,Structure (SMILES),Ventricular EC25 [nM]
1,"Cc1c(CC(=O)N[C@H]2COc3cc(C#N)cc(F)c32)c(=O)[nH]c2ccc(F)c(C#N)c12 (single isomer, unassigned) [compound 60]",620

# Same assay, conditions: Y75 value: concentration required to reduce myosin ATP-ase activity by 25%; Porcine Ventricle Prep pCa 25 GEOM_MEAN
row,Structure (SMILES),Ventricular EC25 [nM]
1,"C[C@@H](NC(=O)Cc1cc2c(F)c(F)ccc2[nH]c1=O)c1nc(C#N)co1 (single isomer, unassigned) [compound 4006]",6660

# Same assay, conditions: porcine ventricle myofibrils; Y75 value
row,Structure (SMILES),Ventricular EC25 [nM]
1,"Cc1nccc2[nH]c(=O)c(CC(=O)N[C@H](C)c3ncccc3F)c(C)c12 (single isomer, unassigned) [compound 267]",100000
2,"Cc1nccc2[nH]c(=O)c([C@@H](C)C(=O)N[C@H](C)c3ccc(C#N)cc3F)c(C)c12 (single isomer, unassigned) [compound 183]",6370
3,Cc1c(CC(=O)N[C@@H](C)c2ncc(C#N)cc2F)c(=O)[nH]c2ccc(C(F)(F)F)nc12 [compound 147],120
4,C[C@H](NC(=O)Cc1c(C(F)(F)F)c2c(C3CC3)nccc2[nH]c1=O)c1ccc(F)cc1F [compound 421],100000
5,"Cc1c([C@@H](C)C(=O)N[C@@H](C)c2ccc(F)cc2F)c(=O)[nH]c2ccnc(F)c12 (single isomer, unassigned) [compound 376]",1330
6,"Cc1nccc2[nH]c(=O)c(CC(=O)N[C@@H](CO)c3ccc(F)cc3F)c(C)c12 (single isomer, unassigned) [compound 396]",3320
7,CNc1nccc2[nH]c(=O)c(CC(=O)N[C@@H](C)c3ccc(F)cc3F)c(C)c12 [compound 354],49130
8,"Cc1nccc2[nH]c(=O)c(CC(=O)N[C@@H](C)c3ccc(O)cc3)c(C)c12 (single isomer, unassigned) [compound 329]",100000
9,Cc1c(CC(=O)N[C@@H](C)c2ccc(C#N)cc2F)c(=O)[nH]c2ccnc(OC3CC3)c12 [compound 202],830
10,"C[C@@H](NC(=O)Cc1c(C(F)(F)F)c2c(C3CC3)nccc2[nH]c1=O)c1ncc(C#N)cn1 (single isomer, unassigned) [compound 3001]",17650
11,"Cc1nccc2[nH]c(=O)c([C@H](C)C(=O)N[C@@H](C)c3ccc(F)cc3F)c(C)c12 (single isomer, unassigned) [compound 398]",59630
12,Cc1c(CC(=O)N[C@@H](C)c2ccc(C#N)cn2)c(=O)[nH]c2ccnc(C#N)c12 [compound 158],1800
13,"Cc1c([C@H](C)C(=O)N[C@@H](C)c2ccc(F)cc2F)c(=O)[nH]c2ccc(C(F)(F)F)nc12 (single isomer, unassigned) [compound 369]",60830

# Test system: Porcine atria myofibrils (atrial myosin ATPase)
# Assay: Myofibril ATPase assay, porcine atria myofibrils
# Assay type: biochemical
# Details: Y75 value (no ‡ mark); porcine atria myofibrils
# Experimental: as §1, §2, §3, §4, §5, §6, §7
row,Structure (SMILES),Atrial EC25 [nM]
1,"Cc1c(CC(=O)N[C@H]2COc3cc(C#N)cc(F)c32)c(=O)[nH]c2ccc(F)c(C#N)c12 (single isomer, unassigned) [compound 60]",50

# Same assay, conditions: Y75 value: concentration required to reduce myosin ATP-ase activity by 25%; Porcine Atria Prep pCa 25 GEOM_MEAN
row,Structure (SMILES),Atrial EC25 [nM]
1,"C[C@@H](NC(=O)Cc1cc2c(F)c(F)ccc2[nH]c1=O)c1nc(C#N)co1 (single isomer, unassigned) [compound 4006]",740

# Same assay, conditions: porcine atria myofibrils; Y75 value (75% activity relative to no compound)
row,Structure (SMILES),Atrial EC25 [nM]
1,"Cc1nccc2[nH]c(=O)c(CC(=O)N[C@H](C)c3ncccc3F)c(C)c12 (single isomer, unassigned) [compound 267]",100000
2,"Cc1nccc2[nH]c(=O)c([C@@H](C)C(=O)N[C@H](C)c3ccc(C#N)cc3F)c(C)c12 (single isomer, unassigned) [compound 183]",330
3,Cc1c(CC(=O)N[C@@H](C)c2ncc(C#N)cc2F)c(=O)[nH]c2ccc(C(F)(F)F)nc12 [compound 147],20
4,C[C@H](NC(=O)Cc1c(C(F)(F)F)c2c(C3CC3)nccc2[nH]c1=O)c1ccc(F)cc1F [compound 421],100000
5,"Cc1c([C@@H](C)C(=O)N[C@@H](C)c2ccc(F)cc2F)c(=O)[nH]c2ccnc(F)c12 (single isomer, unassigned) [compound 376]",160
6,"Cc1nccc2[nH]c(=O)c(CC(=O)N[C@@H](CO)c3ccc(F)cc3F)c(C)c12 (single isomer, unassigned) [compound 396]",1180
7,CNc1nccc2[nH]c(=O)c(CC(=O)N[C@@H](C)c3ccc(F)cc3F)c(C)c12 [compound 354],2110
8,"Cc1nccc2[nH]c(=O)c(CC(=O)N[C@@H](C)c3ccc(O)cc3)c(C)c12 (single isomer, unassigned) [compound 329]",100000
9,Cc1c(CC(=O)N[C@@H](C)c2ccc(C#N)cc2F)c(=O)[nH]c2ccnc(OC3CC3)c12 [compound 202],110
10,"C[C@@H](NC(=O)Cc1c(C(F)(F)F)c2c(C3CC3)nccc2[nH]c1=O)c1ncc(C#N)cn1 (single isomer, unassigned) [compound 3001]",1250
11,"Cc1nccc2[nH]c(=O)c([C@H](C)C(=O)N[C@@H](C)c3ccc(F)cc3F)c(C)c12 (single isomer, unassigned) [compound 398]",2730
12,Cc1c(CC(=O)N[C@@H](C)c2ccc(C#N)cn2)c(=O)[nH]c2ccnc(C#N)c12 [compound 158],430
13,"Cc1c([C@H](C)C(=O)N[C@@H](C)c2ccc(F)cc2F)c(=O)[nH]c2ccc(C(F)(F)F)nc12 (single isomer, unassigned) [compound 369]",290
